According to patent US20170105952A1, “HISTONE ACETYL TRANSFERASE ACTIVATORS AND HISTONE DEACETYLASE INHIBITORS IN THE TREATMENT OF ALCOHOLISM” (THE BOARD OF TRUSTEES OF THE UNIVERSITY OF ILLINOIS, priority 2006, published 2017):
Entries after “also recorded” stand apart in the source; their conditions may differ. Where two headings read alike, the source gives them in different places.

Legend:
HAT = details: Mantelingu et al 2007; cited from earlier work
p300 HAT = p300 HAT (Homo sapiens, UniProt Q09472); details: Balasubramanyam et al 2003; cited from earlier work
HDAC = details: Balasubramanyam et al 2003; cited from earlier work
[1] = tested on: ethanol-withdrawn SD rats; assay: Elevated-plus maze (EPM) test of anxiety-like behaviors in ethanol-withdrawn rats; assay type: in vivo
Procedure: The effect of HDAC inhibition on anxiety-like behaviors of ethanol-withdrawn SD rats after chronic ethanol exposure was assayed using the class I and class II HDAC inhibitor trichostatin A (TSA). SD rats were fed with control or ethanol liquid diet, and ethanol-fed rats were withdrawn for 24 hours as described previously (Pandey et al, Alcohol Clin. Exp. Res. 27:396-409, 2003). Ethanol-withdrawn and control rats were treated with TSA or vehicle (1:5 dilution of DMSO with phosphate-buffered saline) two hours before measuring anxiety-like behaviors using the elevated-plus maze (EPM) test. The EPM is a cross-shaped elevated apparatus consisting of two open arms and two closed arms arranged directly opposite each other and connected to a central platform. To measure anxiety-like behaviors, a test rat was habituated for five-minutes in the test room and then placed on the central platform facing an open arm. The number of entries to each type of arm over a five-minute period was observed and recorded. EPM test results were reported as the mean±SEM of the percent of open-arm entries and the percent of time spent on the open arms. These collectively are referred to as open-arm activity. The general activity of each rat was measured by calculating the sum of open- and closed-arm entries. In the EPM test, ethanol withdrawal after chronic ethanol exposure produced increased anxiety-like behaviors as measured by a reduction in open-arm activities. […]
The effect of Sir-2 inhibition on anxiety-like behaviors in ethanol-withdrawn SD rats after chronic ethanol exposure was assayed by central amygdaloid infusion of the Sir-2 inhibitor, sirtinol. […] Sirtinol (0.5 μl of 25 μM sirtinol) or vehicle (0.5 μl of 0.3% DMSO diluted with artificial CSF) was infused into the CeA of ethanol-withdrawn and control rats, and anxiety was measured after two hours. Anxiety-like behaviors in rats were then measured in the EPM test. […]

[2] = tested on: ethanol-withdrawn SD rats; assay: Light/dark box exploration test of anxiety-like behaviors in ethanol-withdrawn rats; assay type: in vivo
[3] = tested on: HDAC activity in the amygdala; assay: HDAC activity in the amygdala of ethanol-withdrawn rats; assay type: in vivo
Procedure: The effect on HDAC activity in the amygdala of ethanol-withdrawn SD rats after chronic ethanol exposure was measured. SD rats were fed with control or ethanol liquid diet, and ethanol-fed rats were withdrawn for 24 hours. Ethanol-withdrawn and control rats were treated with TSA or vehicle two hours before measuring HDAC activity. Ethanol withdrawal after chronic ethanol exposure produced an increase in HDAC activity in the amygdala of rats.
The effect on HDAC activity in the amygdala of ethanol-withdrawn SD rats after chronic ethanol exposure was measured. SD rats were fed with control or ethanol liquid diet, and ethanol-fed rats were withdrawn for 24 hours. […] Two hours after injections, brains were collected to measure HDAC activity. The nuclear and cytosolic fractions of amygdala were prepared and HDAC activities were measured using an HDAC ELISA kit. Ethanol withdrawal after chronic ethanol exposure produced an increase in nuclear, but not cytosolic, HDAC activity in the amygdala of rats.

acetylated histone H3 [4] = assay: Acetylated histone H3 protein levels in amygdaloid structures of ethanol-withdrawn rats (gold-immunolabeling); assay type: in vivo; details: for histone H3-K9 acetylation: SAHA 50 mg/kg intraperitoneally, FIG. 3
Procedure: (§1) The effect of HDAC inhibition on acetylated histone H3, CBP, and Sir-2 (HDAC III) level in ethanol-withdrawn SD rats after chronic ethanol exposure was assayed using trichostatin A (TSA). SD rats were fed control or ethanol liquid diet, and ethanol-fed rats were withdrawn for 24 hours. Ethanol-withdrawn and control rats were treated with TSA or vehicle, and protein levels were measured in amygdaloid structures by gold-immunolabeling. In the CeA and MeA, but not in the BLA, ethanol withdrawal produced significant reductions in protein levels of acetylated histone H3 and CBP-HAT, and produced an increase in protein levels of Sir-2. […] Thus, histone acetylation is normalized by TSA treatment due to inhibition of HDAC activity.
In the CeA and MeA, but not in the BLA, ethanol withdrawal produced significant reductions in protein levels of acetylated histone H3-K9.

Limk1 = Limk1 protein levels in amygdaloid structures of ethanol-withdrawn rats (gold-immunolabeling); assay type: in vivo; details: SAHA 50 mg/kg intraperitoneally, decrease seen in CeA and MeA, FIG. 5
Procedure: The effect on protein levels of Limk1 in the amygdala of ethanol-withdrawn SD rats after chronic ethanol exposure was measured. SD rats were fed with control or ethanol liquid diet, and ethanol-fed rats were withdrawn for 24 hours. […] Brains were collected after perfusion for Limk1 protein level measurement. Protein levels were measured in amygdaloid structures by gold-immunolabeling. Ethanol withdrawal, but not ethanol treatment, produced significant decreases in protein levels of Limk1 in the CeA and MeA, but not in the BLA.

CBP [5] = assay: CBP protein levels in amygdaloid structures of ethanol-withdrawn rats (gold-immunolabeling); assay type: in vivo; details: TSA
Procedure: as §1

Sir-2 (HDAC III) = assay: Sir-2 protein levels in amygdaloid structures of ethanol-withdrawn rats (gold-immunolabeling); assay type: in vivo; details: TSA
Procedure: as §1

NPY = NPY mRNA and protein levels in amygdaloid structures of ethanol-withdrawn rats; assay type: in vivo; details: TSA, reduction seen in CeA and MeA
Procedure: The effect of HDAC inhibition on NPY mRNA and protein levels in ethanol-withdrawn SD rats after chronic ethanol exposure was also assayed using trichostatin A (TSA). SD rats were fed control or ethanol liquid diet, and ethanol-fed rats were withdrawn for 24 hours. Ethanol-withdrawn and control rats were treated with TSA or vehicle, and mRNA and protein levels were measured in amygdaloid structures. In the CeA and MeA, but not in the BLA, ethanol withdrawal produced significant reductions in both mRNA and protein levels of NPY. […] Thus, NPY expression is also normalized by TSA treatment during ethanol withdrawal after chronic ethanol exposure.

[6] = tested on: alcohol-preferring (P) rats; assay: Two-bottle voluntary alcohol intake in alcohol-preferring rats; assay type: in vivo; details: TSA 2 mg/kg intraperitoneal daily, last three days of 9% alcohol drinking
Procedure: (§2) The effect of HDAC inhibition on the alcohol consumption of alcohol-preferring (P) and non-preferring (NP) rats was assayed. Selective breeding has produced the P and NP rat lines with high and low alcohol preference, respectively (Li T. K, Lumeng L, Doolittle D P, Behav. Genet. 23:163-170, 1993; McKinzie D L, Nowak K L, Murphy J M, Li T K, Lumeng L, McBride W J, Alcohol Clin. Exp. Res. 22:1584-1590, 1998). P and NP rats were habituated to drink water equally from two bottles. One bottle was then replaced with 7% ethanol for the first three days and 9% ethanol for the next seven days. During the last three days of 9% alcohol drinking, rats were treated with TSA daily (2 mg/kg intraperitoneal injection). […] As a result of the large reduction in voluntary alcohol consumption by the alcohol-preferring animal model when treated with an HDAC inhibitor, it is expected that HDAC inhibitors also prevent the development of alcohol dependence.

non-preferring (NP) rats = assay: Two-bottle voluntary alcohol intake in non-preferring rats; assay type: in vivo; details: TSA 2 mg/kg intraperitoneal daily, last three days of 9% alcohol drinking
Procedure: as §2

[7] = tested on: class I and class II HDACs; details: Yoshida et al 1990; cited from earlier work
HDACs in the amygdala = details: ethanol 1 g/kg intraperitoneal injection, after one hour
Procedure: (§3) The effect of acute ethanol exposure on HDAC activity, histone acetylation level, and CBP level was measured in Sprague-Dawley (SD) rats. Rats were injected with ethanol (1 g/kg intraperitoneal injection) or n-saline, and after one hour, anxiolytic responses were measured. […] The amygdala was then dissected out, and HDAC activity was measured.

Sprague-Dawley (SD) rats = details: ethanol 1 g/kg intraperitoneal injection vs n-saline, after one hour
Procedure: as §3

CBP [8] = details: acute ethanol vs n-saline
Procedure: (§4) The protein levels of acetylated histone H3, acetylated histone H4, and CBP in the CeA structures of n-saline- or acute ethanol-treated rats were measured by immunohistochemistry.

acetylated histone H3 [9] = details: acute ethanol vs n-saline
Procedure: as §4

acetylated histone H4 = details: acute ethanol vs n-saline
Procedure: as §4

Sir-2 = details: Landry et al 2000; Blander et al 2004; cited from earlier work

Sequence of p300 HAT (Q09472 whole entry, species assumed): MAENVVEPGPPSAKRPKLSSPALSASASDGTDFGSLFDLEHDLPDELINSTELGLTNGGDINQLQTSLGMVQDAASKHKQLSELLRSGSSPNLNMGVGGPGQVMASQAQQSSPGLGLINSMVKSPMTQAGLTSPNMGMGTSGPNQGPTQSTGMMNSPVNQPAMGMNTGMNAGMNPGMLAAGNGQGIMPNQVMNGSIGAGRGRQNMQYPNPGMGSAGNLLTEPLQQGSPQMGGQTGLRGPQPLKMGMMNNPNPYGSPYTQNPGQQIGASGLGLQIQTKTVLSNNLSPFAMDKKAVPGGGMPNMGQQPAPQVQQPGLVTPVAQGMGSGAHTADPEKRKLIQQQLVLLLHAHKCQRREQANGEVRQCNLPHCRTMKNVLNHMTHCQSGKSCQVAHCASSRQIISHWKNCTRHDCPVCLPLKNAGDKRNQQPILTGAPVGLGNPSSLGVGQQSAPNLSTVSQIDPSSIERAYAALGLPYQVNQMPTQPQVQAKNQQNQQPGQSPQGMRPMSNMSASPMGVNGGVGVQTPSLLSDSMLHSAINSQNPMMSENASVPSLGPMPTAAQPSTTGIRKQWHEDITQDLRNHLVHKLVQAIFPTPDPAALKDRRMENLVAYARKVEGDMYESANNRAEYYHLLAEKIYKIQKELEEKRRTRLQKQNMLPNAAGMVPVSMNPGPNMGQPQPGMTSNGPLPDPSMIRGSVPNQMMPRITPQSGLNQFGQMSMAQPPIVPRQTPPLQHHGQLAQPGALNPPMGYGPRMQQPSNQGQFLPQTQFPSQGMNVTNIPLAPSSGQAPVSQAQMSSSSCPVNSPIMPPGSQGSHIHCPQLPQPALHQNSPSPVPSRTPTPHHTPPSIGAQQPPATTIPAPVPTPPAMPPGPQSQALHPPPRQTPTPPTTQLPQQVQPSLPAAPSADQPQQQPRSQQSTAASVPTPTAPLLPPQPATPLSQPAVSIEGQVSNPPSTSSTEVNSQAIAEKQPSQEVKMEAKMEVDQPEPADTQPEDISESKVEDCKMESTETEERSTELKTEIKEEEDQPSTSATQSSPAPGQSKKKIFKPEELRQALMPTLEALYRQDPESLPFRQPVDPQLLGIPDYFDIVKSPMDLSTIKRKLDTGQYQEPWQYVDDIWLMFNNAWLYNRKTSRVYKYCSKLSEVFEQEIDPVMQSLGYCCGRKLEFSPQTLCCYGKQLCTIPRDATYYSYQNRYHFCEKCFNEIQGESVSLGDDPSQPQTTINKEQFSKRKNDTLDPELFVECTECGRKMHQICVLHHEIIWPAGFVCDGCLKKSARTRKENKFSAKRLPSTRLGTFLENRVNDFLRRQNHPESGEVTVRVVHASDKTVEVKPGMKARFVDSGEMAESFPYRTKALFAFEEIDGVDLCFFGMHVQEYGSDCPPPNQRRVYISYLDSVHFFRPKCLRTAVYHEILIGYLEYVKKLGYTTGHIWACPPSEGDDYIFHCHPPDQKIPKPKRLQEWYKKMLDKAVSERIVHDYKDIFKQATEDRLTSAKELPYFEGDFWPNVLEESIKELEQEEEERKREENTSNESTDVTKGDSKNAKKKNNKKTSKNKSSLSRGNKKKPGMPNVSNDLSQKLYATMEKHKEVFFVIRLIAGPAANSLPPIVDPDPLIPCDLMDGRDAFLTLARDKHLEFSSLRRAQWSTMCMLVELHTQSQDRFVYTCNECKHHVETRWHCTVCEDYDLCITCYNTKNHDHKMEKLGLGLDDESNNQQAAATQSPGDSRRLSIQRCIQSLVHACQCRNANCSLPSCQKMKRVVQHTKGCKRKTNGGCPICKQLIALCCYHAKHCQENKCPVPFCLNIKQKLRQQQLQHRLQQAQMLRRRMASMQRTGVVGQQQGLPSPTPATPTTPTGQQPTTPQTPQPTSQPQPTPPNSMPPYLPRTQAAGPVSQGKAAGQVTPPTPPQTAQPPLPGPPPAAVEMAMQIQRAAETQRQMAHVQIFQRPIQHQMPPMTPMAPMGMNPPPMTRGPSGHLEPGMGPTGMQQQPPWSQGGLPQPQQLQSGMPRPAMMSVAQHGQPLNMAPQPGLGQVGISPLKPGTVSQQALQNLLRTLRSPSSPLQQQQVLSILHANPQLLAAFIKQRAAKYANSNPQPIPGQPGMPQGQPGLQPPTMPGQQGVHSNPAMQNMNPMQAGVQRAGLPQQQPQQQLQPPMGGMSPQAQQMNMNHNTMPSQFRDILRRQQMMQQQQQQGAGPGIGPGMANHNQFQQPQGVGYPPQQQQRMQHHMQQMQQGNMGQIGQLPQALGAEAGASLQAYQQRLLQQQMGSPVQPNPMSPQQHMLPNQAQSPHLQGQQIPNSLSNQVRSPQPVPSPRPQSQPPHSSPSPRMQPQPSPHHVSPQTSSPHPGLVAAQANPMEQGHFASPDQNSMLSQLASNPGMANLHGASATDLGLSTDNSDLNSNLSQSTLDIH

For CCOc1ccccc1C(=O)Nc1ccc(Cl)c(C(F)(F)F)c1 [CTB, N-(4-chloro-3-trifluoromethyl-phenyl)-2-ethoxy-benzamide], the HAT activation (HAT) is given as “HAT activators”.
For CCCCCCCCCCCCCCCc1cccc(OCC)c1C(=O)Nc1ccc(Cl)c(C(F)(F)F)c1 [CTPB, N-(4-chloro-3-trifluoromethyl-phenyl)-2-ethoxy-6-pentadecyl-benzamide], the “p300 HAT activity” value (p300 HAT) is given as “activate p300 HAT activity” and the HDAC activity (HDAC) is given as “without affecting HDAC activity”.
For O=C(CCCCCCC(=O)Nc1ccccc1)NO [SAHA, suberoylanilide hydroxamic acid], the “anxiety-like behaviors (open-arm activity) in EPM test” value (“anxiety-like behaviors … in EPM test” for short) ([1]; SAHA 50 mg/kg intraperitoneally, 24 hours ethanol withdrawal, FIG. 1B) was “prevented these anxiety-like behaviors”, the “anxiety-like behaviors (time spent in the light box)” value ([2]; SAHA 50 mg/kg intraperitoneally, 24 hours ethanol withdrawal, FIG. 1A) was “significantly reduced these anxiety-like behaviors” and the “withdrawal-induced increase in nuclear HDAC activity in the amygdala” value ([3]; SAHA 50 mg/kg intraperitoneally, two hours after injection, nuclear fraction, HDAC ELISA kit, FIG. 2) was “attenuated this increase in nuclear HDAC activity”. For the same molecule, the “histone H3-K9 acetylation” value (acetylated histone H3 [4]; BLA) was “had no effects on histone H3-K9 acetylation”, the “histone H3-K9 acetylation” value (acetylated histone H3 [4]; CeA and MeA) was “corrected the deficits in histone H3-K9 acetylation” and the Limk1 protein levels (Limk1) was “normalized Limk1 levels”.
For CC(/C=C/C(=O)NO)=C\[C@@H](C)C(=O)c1ccc(N(C)C)cc1 [TSA, trichostatin A], the “anxiety-like behaviors … in EPM test” value ([1]; TSA two hours before test, 24 hours ethanol withdrawal after chronic ethanol) was “restored these anxiety-like behaviors to normal levels; also recorded: prevented the development of anxiety-like behaviors”, the “anxiety-like behaviors (time spent in the light box)” value ([2]; TSA, 24 hours ethanol withdrawal after chronic ethanol) was “significantly reduced these anxiety-like behaviors” and the “withdrawal-induced increase in HDAC activity in the amygdala” value ([3]; TSA two hours before measurement, 24 hours ethanol withdrawal) was “completely prevented this increase in HDAC activity; also recorded: normalized the increase in HDAC activity”. For the same molecule, the “acetylated histone H3 levels” value (acetylated histone H3 [4]; TSA, reduction seen in CeA and MeA) was “rescued acetylated histone H3 levels; also recorded: normalized the reduction in acetylation of histone H3”, the CBP levels (CBP [5]) was “did not modulate CBP and Sir-2 levels” and the Sir-2 levels (Sir-2 (HDAC III)) was “did not modulate CBP and Sir-2 levels”. The “NPY mRNA and protein levels” value (NPY) was “restored NPY levels to normal; also recorded: normalized the reduction in NPY expression”, the alcohol intake [6] was “significantly attenuated the alcohol intake” and the alcohol intake (non-preferring (NP) rats) was “not in low alcohol-drinking NP rats”. The “inhibition of class I and class II HDACs” value [7] was “potently inhibits class I and class II HDACs”.
For CCO [ethanol], the “inhibition of HDAC activity in the amygdala compared to n-saline-treated rats” value (HDACs in the amygdala) was 36%, the anxiolytic responses (Sprague-Dawley (SD) rats) was “anxiolytic effects” and the “protein level of CBP” value (CBP [8]; BLA) was “not in basolateral amygdaloid (BLA) structures”. The “protein level of CBP” value (CBP [8]; CeA) was “increased protein levels”, the “protein level of CBP” value (CBP [8]; MeA) was “increased protein levels” and the “protein level of acetylated histone H3” value (acetylated histone H3 [9]; BLA) was “not in basolateral amygdaloid (BLA) structures”. The “protein level of acetylated histone H3” value (acetylated histone H3 [9]; CeA) was “increased protein levels”, the “protein level of acetylated histone H3” value (acetylated histone H3 [9]; MeA) was “increased protein levels” and the “protein level of acetylated histone H4” value (acetylated histone H4; CeA) was “increased protein levels”. For the same molecule, the “protein level of acetylated histone H4” value (acetylated histone H4; MeA) was “increased protein levels”.
For CC(NC(=O)c1ccccc1/N=C/c1c(O)ccc2ccccc12)c1ccccc1 (stereo not shown) [sirtinol], the “anxiety-like behaviors … in EPM test” value ([1]; 0.5 μl of 25 μM sirtinol infused into the CeA, two hours before test, 24 hours ethanol withdrawal) is given as “development of these anxiety-like behaviors was prevented” and the “inhibition of Sir-2” value (Sir-2) is given as “specific inhibitor of Sir-2”.
